PubChem BioAssay (NCI)
“And” between values parts separate entries of the source, which are not always exact repeats. Equal values may be shown once.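 The compound was tested at five concentrations on cells cultured in 96-well plates, with a 48-hour exposure period. GI50: concentration for 50% inhibition of growth. The concentration for full growth arrest is given as TGI.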

Legend:
Test in all cases: NCI tumour cell line growth inhibition, 48 h
SN12K1 renal = test system: SN12K1 renal
DMS 114 small cell lung = test system: DMS 114 small cell lung
DMS 273 small cell lung = test system: DMS 273 small cell lung
SNB-78 CNS = test system: SNB-78 CNS
KM20L2 colon = test system: KM20L2 colon
DLD-1 colon = test system: DLD-1 colon
P388/ADR leukemia = test system: P388/ADR leukemia
K-562 leukemia = test system: K-562 leukemia
MOLT-4 leukemia = test system: MOLT-4 leukemia
P388 leukemia = test system: P388 leukemia

SMILES: COC(=O)C1C(O)C(C)C(O)C(C)/C=C\C=C(C)C(=O)Nc2c(C)c(OC(C)=O)c3c(c2O)C(=O)C(C)=C2OCOC(=C23)C(C)=CC(C)(O)C(O)C(C)C1O (configuration not stated)
- TGI (SN12K1 renal): > 63.3 µM
- TGI (DMS 114 small cell lung): 52.6 µM
- TGI (DMS 273 small cell lung): > 75 µM
- TGI (SNB-78 CNS): > 75 µM
- TGI (KM20L2 colon): > 72.8 µM
- TGI (DLD-1 colon): 31.4 µM
- TGI (P388/ADR leukemia): > 58.5 µM
- GI50 (K-562 leukemia): 28.3 µM and > 100 µM
- TGI (K-562 leukemia): > 100 µM
- GI50 (MOLT-4 leukemia): 18.1 µM and 51.1 µM
- TGI (MOLT-4 leukemia): 45.4 µM and > 100 µM
- TGI (P388 leukemia): 47.1 µM
